According to patent publication US20130157954A1, “METHODS FOR TREATMENT OR PROPHYLAXIS OF KIDNEY OR LIVER DYSFUNCTION” (NPS PHARMACEUTICALS, INC., priority 2010, published 2013):

Test: Example 1: liver biomarkers (total bilirubin, ALT, AST, ALP) in short bowel syndrome patients, every four weeks for 24 weeks; also sorted by >5% change from baseline
Type: in vivo, Human
Set-up: AST (SGOT) Change from Baseline Median / ALT (SGPT) Median / TOTAL BILIRUBIN Median / TOTAL BILIRUBIN Change from Baseline Median / ALT (SGPT) Change from Baseline Median / AST (SGOT) Median: unit not given here
Details: 0.05 mg/kg/day
Method: Human patients with short bowel syndrome were divided into three groups: a control group (16 total individuals) to receive placebo, an experimental group (35 total individuals) to receive teduglutide at 0.05 mg/kg/day throughout the study, and an experimental group (32 total individuals) to receive teduglutide at 0.1 mg/kg/day throughout the study. Patients were treated by subcutaneous injection of placebo or the appropriate dose of teduglutide. As individuals with short bowel syndrome are likely to experience associated liver and kidney disease, known biomarkers of liver and kidney function were monitored every four weeks, for 24 weeks. The liver biomarkers tested included total bilirubin, ALT and AST and ALP. The kidney biomarkers tested included urea nitrogen, creatinine and GFR. Before administration of placebo or teduglutide, diagnostic biomarker levels were tested to establish a baseline for each individual.
To visualize the effect of GLP-2 on the levels of the diagnostic biomarkers, the average change from baseline was calculated for the placebo and teduglutide treated groups for each visit after a baseline was established. The average change from baseline of each group is depicted in FIGS. 1-7. The numerical figures for each diagnostic biomarker at each time point are depicted in Table 1.
The efficacy of teduglutide in treating liver dysfunction was further tested by sorting the data into two groups: individuals with abnormal baseline values of liver diagnostic biomarkers; and individuals with normal baseline values of liver diagnostic biomarkers. The mean diagnostic biomarker change from baseline for these two groups is shown for ALT (FIGS. 5 and 6) and AST (FIGS. 7 and 8). […] These changes were significant when compared to baseline levels for the group, and when compared to placebo (see FIGS. 5 and 7).
The raw data for this sorting is reproduced in Table 2 below.

CC[C@H](C)[C@H](NC(=O)[C@H](Cc1ccccc1)NC(=O)[C@H](CC(=O)O)NC(=O)[C@H](CCCNC(=N)N)NC(=O)[C@H](C)NC(=O)[C@H](C)NC(=O)[C@H](CC(C)C)NC(=O)[C@H](CC(N)=O)NC(=O)[C@H](CC(=O)O)NC(=O)[C@H](CC(C)C)NC(=O)[C@@H](NC(=O)[C@@H](NC(=O)[C@H](CC(N)=O)NC(=O)[C@H](CCSC)NC(=O)[C@H](CCC(=O)O)NC(=O)[C@H](CC(=O)O)NC(=O)[C@H](CO)NC(=O)[C@H](Cc1ccccc1)NC(=O)[C@H](CO)NC(=O)CNC(=O)[C@H](CC(=O)O)NC(=O)CNC(=O)[C@@H](N)Cc1c[nH]cn1)[C@@H](C)O)[C@@H](C)CC)C(=O)N[C@@H](CC(N)=O)C(=O)N[C@@H](Cc1c[nH]c2ccccc12)C(=O)N[C@@H](CC(C)C)C(=O)N[C@H](C(=O)N[C@@H](CCC(N)=O)C(=O)N[C@H](C(=O)N[C@@H](CCCCN)C(=O)N[C@H](C(=O)N[C@H](C(=O)N[C@@H](CC(=O)O)C(=O)O)[C@@H](C)O)[C@@H](C)CC)[C@@H](C)O)[C@@H](C)CC [teduglutide]
ALKALINE PHOSPHATASE Change from Baseline Median (DW4): −16.0
ALT (SGPT) Change from Baseline Median (DW4): −5.0
ALT (SGPT) Median (DW4): 27.0
AST (SGOT) Change from Baseline Median (DW4): −4.0
AST (SGOT) Median (DW4): 27.0
TOTAL BILIRUBIN Change from Baseline Median (DW4): 0.0
TOTAL BILIRUBIN Median (DW4): 7.0
ALKALINE PHOSPHATASE Change from Baseline Median (DW8): −20.0
ALT (SGPT) Change from Baseline Median (DW8): −4.0
AST (SGOT) Change from Baseline Median (DW8): −3.0
AST (SGOT) Median (DW8): 28.0
TOTAL BILIRUBIN Change from Baseline Median (DW8): −1.0
TOTAL BILIRUBIN Median (DW8): 8.0
ALKALINE PHOSPHATASE Change from Baseline Median (DW12): −24.0
ALT (SGPT) Change from Baseline Median (DW12): −10.0
ALT (SGPT) Median (DW12): 26.0
AST (SGOT) Change from Baseline Median (DW12): −8.0
TOTAL BILIRUBIN Change from Baseline Median (DW12): −1.0
TOTAL BILIRUBIN Median (DW12): 7.0
ALT (SGPT) Change from Baseline Median (DW16): −2.5
ALT (SGPT) Median (DW16): 28.0
AST (SGOT) Change from Baseline Median (DW16): −1.5
AST (SGOT) Median (DW16): 25.0
TOTAL BILIRUBIN Change from Baseline Median (DW16): −1.0
TOTAL BILIRUBIN Median (DW16): 7.0
ALKALINE PHOSPHATASE Change from Baseline Median (DW20): −25.0
ALT (SGPT) Change from Baseline Median (DW20): −5.0
ALT (SGPT) Median (DW20): 26.0
AST (SGOT) Change from Baseline Median (DW20): −4.0
AST (SGOT) Median (DW20): 25.0
TOTAL BILIRUBIN Change from Baseline Median (DW20): 0.0
TOTAL BILIRUBIN Median (DW20): 9.0
ALKALINE PHOSPHATASE Change from Baseline Median (DW 24): −29.0
ALT (SGPT) Change from Baseline Median (DW 24): −5.0
ALT (SGPT) Median (DW 24): 20.0
AST (SGOT) Change from Baseline Median (DW 24): −4.5
AST (SGOT) Median (DW 24): 25.0
TOTAL BILIRUBIN Change from Baseline Median (DW 24): 0.0
TOTAL BILIRUBIN Median (DW 24): 8.0
ALKALINE PHOSPHATASE change from baseline <−5%, number of patients (week 4): 21
ALKALINE PHOSPHATASE change from baseline <−5%, percent of patients (week 4): (60.0%)
ALKALINE PHOSPHATASE change from baseline >5%, number of patients (week 4): 3
ALKALINE PHOSPHATASE change from baseline >5%, percent of patients (week 4): (8.6%)
ALKALINE PHOSPHATASE change from baseline −5% <= and <=5%, number of patients (week 4): 6
ALKALINE PHOSPHATASE change from baseline −5% <= and <=5%, percent of patients (week 4): (17.1%)
ALT (SGPT) change from baseline <−5%, number of patients (week 4): 22
ALT (SGPT) change from baseline <−5%, percent of patients (week 4): (62.9%)
ALT (SGPT) change from baseline >5%, number of patients (week 4): 8
ALT (SGPT) change from baseline >5%, percent of patients (week 4): (22.9%)
ALT (SGPT) change from baseline −5% <= and <=5%, number of patients (week 4): 0
ALT (SGPT) change from baseline −5% <= and <=5%, percent of patients (week 4): (0.0%)
AST (SGOT) change from baseline <−5%, number of patients (week 4): 21
AST (SGOT) change from baseline <−5%, percent of patients (week 4): (60.0%)
AST (SGOT) change from baseline >5%, number of patients (week 4): 5
AST (SGOT) change from baseline >5%, percent of patients (week 4): (14.3%)
AST (SGOT) change from baseline −5% <= and <=5%, number of patients (week 4): 2
AST (SGOT) change from baseline −5% <= and <=5%, percent of patients (week 4): (5.7%)
TOTAL BILIRUBIN change from baseline <−5%, number of patients (week 4): 12
TOTAL BILIRUBIN change from baseline <−5%, percent of patients (week 4): (34.3%)
TOTAL BILIRUBIN change from baseline >5%, number of patients (week 4): 8
TOTAL BILIRUBIN change from baseline >5%, percent of patients (week 4): (22.9%)
TOTAL BILIRUBIN change from baseline −5% <= and <=5%, number of patients (week 4): 6
TOTAL BILIRUBIN change from baseline −5% <= and <=5%, percent of patients (week 4): (17.1%)
ALKALINE PHOSPHATASE change from baseline <−5%, number of patients (week 8): 21
ALKALINE PHOSPHATASE change from baseline <−5%, percent of patients (week 8): (60.0%)
ALKALINE PHOSPHATASE change from baseline >5%, number of patients (week 8): 6
ALKALINE PHOSPHATASE change from baseline >5%, percent of patients (week 8): (17.1%)
ALKALINE PHOSPHATASE change from baseline −5% <= and <=5%, number of patients (week 8): 2
ALKALINE PHOSPHATASE change from baseline −5% <= and <=5%, percent of patients (week 8): (5.7%)
ALT (SGPT) change from baseline <−5%, number of patients (week 8): 16
ALT (SGPT) change from baseline <−5%, percent of patients (week 8): (45.7%)
ALT (SGPT) change from baseline >5%, number of patients (week 8): 9
ALT (SGPT) change from baseline >5%, percent of patients (week 8): (25.7%)
ALT (SGPT) change from baseline −5% <= and <=5%, number of patients (week 8): 4
ALT (SGPT) change from baseline −5% <= and <=5%, percent of patients (week 8): (11.4%)
AST (SGOT) change from baseline <−5%, number of patients (week 8): 16
AST (SGOT) change from baseline <−5%, percent of patients (week 8): (45.7%)
AST (SGOT) change from baseline >5%, number of patients (week 8): 9
AST (SGOT) change from baseline >5%, percent of patients (week 8): (25.7%)
AST (SGOT) change from baseline −5% <= and <=5%, number of patients (week 8): 4
AST (SGOT) change from baseline −5% <= and <=5%, percent of patients (week 8): (11.4%)
TOTAL BILIRUBIN change from baseline <−5%, number of patients (week 8): 13
TOTAL BILIRUBIN change from baseline <−5%, percent of patients (week 8): (37.1%)
TOTAL BILIRUBIN change from baseline >5%, number of patients (week 8): 8
TOTAL BILIRUBIN change from baseline >5%, percent of patients (week 8): (22.9%)
TOTAL BILIRUBIN change from baseline −5% <= and <=5%, number of patients (week 8): 4
TOTAL BILIRUBIN change from baseline −5% <= and <=5%, percent of patients (week 8): (11.4%)
ALKALINE PHOSPHATASE change from baseline <−5%, number of patients (week 12): 23
ALKALINE PHOSPHATASE change from baseline <−5%, percent of patients (week 12): (65.7%)
ALKALINE PHOSPHATASE change from baseline >5%, number of patients (week 12): 2
ALKALINE PHOSPHATASE change from baseline >5%, percent of patients (week 12): (5.7%)
ALKALINE PHOSPHATASE change from baseline −5% <= and <=5%, number of patients (week 12): 2
